The supplement of paper PMC4628005

Key:
Settings in all cases: drug exposure time: 96 h
17-AAG = compound: C=CCNC1=C2C[C@@H](C)C[C@H](OC)[C@H](O)[C@@H](C)/C=C(\C)[C@H](OC(N)=O)[C@@H](OC)/C=C\C=C(/C)C(=O)NC(=CC1=O)C2=O [17-AAG]
Experimental: (§1)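 Same SRB 96 h IC50 screen on breast cancer cell lines (RPMI 1640 + 10% FBS, collagen I-coated 96-well plates, triplicates, 12 dilutions), for drugs with a different dose range: Bortezomib up to 2e-5 M; Sirolimus and 17-AAG up to 2e-6 M. Sirolimus values at the 2e-6 M top dose are censored.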

Sirolimus = compound: CO[C@H]1C[C@@H]2CC[C@@H](C)[C@@](O)(O2)C(=O)C(=O)N2CCCC[C@H]2C(=O)O[C@H]([C@H](C)C[C@@H]2CC[C@@H](O)[C@H](OC)C2)CC(=O)[C@H](C)/C=C(\C)[C@@H](O)[C@@H](OC)C(=O)[C@H](C)C[C@H](C)/C=C/C=C/C=C/1C [Sirolimus]
Experimental: as §1

Bortezomib = compound: CC(C)C[C@H](NC(=O)[C@H](Cc1ccccc1)NC(=O)c1cnccn1)B(O)O [Bortezomib]
Experimental: as §1

Sorafenib = compound: CNC(=O)c1cc(Oc2ccc(NC(=O)Nc3ccc(Cl)c(C(F)(F)F)c3)cc2)ccn1 [Sorafenib]
Experimental: (§2)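 Breast cancer cell lines were grown in RPMI 1640 with 10% FBS on collagen I-coated 96-well plates and treated for 96 h (from 24 h after seeding) with 12 dilutions per drug, in triplicate. Growth was read by sulforhodamine B total-protein staining (absorbance 570 nm) relative to diluent control, and IC50 was calculated. The top dose was 1e-5 M for most drugs; Bortezomib went to 2e-5 M and Sirolimus and 17-AAG to 2e-6 M[…].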

Panobinostat = compound: Cc1[nH]c2ccccc2c1CCNCc1ccc(/C=C/C(=O)NO)cc1 [Panobinostat]
Experimental: as §2

Vandetanib = compound: COc1cc2/c(=N/c3ccc(Br)cc3F)nc[nH]c2cc1OCC1CCN(C)CC1 [Vandetanib]
Experimental: as §2

Decitabine = compound: Nc1ncn([C@H]2C[C@H](O)[C@@H](CO)O2)c(=O)n1 [Decitabine]
Experimental: as §2

MI-219 = compound: CC(C)(C)C[C@H]1N[C@@H](C(=O)NCC[C@H](O)CO)[C@H](c2cccc(Cl)c2)[C@@]12C(=O)Nc1cc(Cl)c(F)cc12 [MI-219]
Experimental: as §2

Paclitaxel = compound: CC(=O)O[C@H]1C(=O)[C@@]2(C)[C@H]([C@H](OC(=O)c3ccccc3)[C@]3(O)C[C@H](OC(=O)[C@H](O)[C@@H](NC(=O)c4ccccc4)c4ccccc4)C(C)=C1C3(C)C)[C@]1(OC(C)=O)CO[C@@H]1C[C@@H]2O [Paclitaxel]
Experimental: as §2

Brivanib = compound: Cc1cc2c(F)c(Oc3ncnn4cc(OC[C@@H](C)O)c(C)c34)ccc2[nH]1 [Brivanib]
Experimental: as §2

Vorinostat = compound: O=C(CCCCCCC(=O)Nc1ccccc1)NO [Vorinostat]
Experimental: as §2

Tipifarnib = compound: Cn1cncc1[C@@](N)(c1ccc(Cl)cc1)c1ccc2c(c1)c(-c1cccc(Cl)c1)cc(=O)n2C [Tipifarnib]
Experimental: as §2

Serdemetan = compound: c1ccc2c(CCNc3ccc(Nc4ccncc4)cc3)c[nH]c2c1 [Serdemetan]
Experimental: as §2

Methotrexate = compound: CN(Cc1cnc2nc(N)nc(N)c2n1)c1ccc(C(=O)N[C@@H](CCC(=O)O)C(=O)O)cc1 [Methotrexate]
Experimental: as §2

Sunitinib = compound: CCN(CC)CCNC(=O)c1c(C)[nH]c(/C=C2\C(=O)Nc3ccc(F)cc32)c1C [Sunitinib]
Experimental: as §2

Nutlin-3 = compound: COc1ccc(C2=N[C@@H](c3ccc(Cl)cc3)[C@@H](c3ccc(Cl)cc3)N2C(=O)N2CCNC(=O)C2)c(OC(C)C)c1 [Nutlin-3]
Experimental: as §2

Erlotinib = compound: C#Cc1cccc(Nc2ncnc3cc(OCCOC)c(OCCOC)cc23)c1 [Erlotinib]
Experimental: as §2

Tamoxifen = compound: CC/C(=C(\c1ccccc1)c1ccc(OCCN(C)C)cc1)c1ccccc1 [Tamoxifen]
Experimental: as §2

5-Fluorouracil = compound: O=c1[nH]cc(F)c(=O)[nH]1 [5-Fluorouracil]
Experimental: as §2

Quisinostat = compound: Cn1cc(CNCC2CCN(c3ncc(C(=O)NO)cn3)CC2)c2ccccc21 [Quisinostat]
Experimental: as §2

Azacitidine = compound: Nc1ncn([C@@H]2O[C@H](CO)[C@@H](O)[C@H]2O)c(=O)n1 [Azacitidine]
Experimental: as §2

Mitoxantrone = compound: O=C1c2c(O)ccc(O)c2C(=O)c2c(NCCNCCO)ccc(NCCNCCO)c21 [Mitoxantrone]
Experimental: as §2

Doxorubicin = compound: COc1cccc2c1C(=O)c1c(O)c3c(c(O)c1C2=O)C[C@@](O)(C(=O)CO)C[C@@H]3O[C@H]1C[C@H](N)[C@H](O)[C@H](C)O1 [Doxorubicin]
Experimental: as §2

Docetaxel = compound: CC(=O)O[C@@]12CO[C@@H]1C[C@H](O)[C@@]1(C)C(=O)[C@H](O)C3=C(C)[C@@H](OC(=O)[C@H](O)[C@@H](NC(=O)OC(C)(C)C)c4ccccc4)C[C@@](O)([C@@H](OC(=O)c4ccccc4)[C@H]21)C3(C)C [Docetaxel]
Experimental: as §2

Belinostat = compound: O=C(/C=C/c1cccc(S(=O)(=O)Nc2ccccc2)c1)NO [Belinostat]
Experimental: as §2

Gefitinib = compound: COc1cc2ncnc(Nc3ccc(F)c(Cl)c3)c2cc1OCCCN1CCOCC1 [Gefitinib]
Experimental: as §2

Lapatinib = compound: CS(=O)(=O)CCNCc1ccc(-c2ccc3ncnc(Nc4ccc(OCc5cccc(F)c5)c(Cl)c4)c3c2)o1 [Lapatinib]
Experimental: as §2

Dasatinib = compound: Cc1nc(Nc2ncc(C(=O)Nc3c(C)cccc3Cl)s2)cc(N2CCN(CCO)CC2)n1 [Dasatinib]
Experimental: as §2

ARQ197 = compound: O=C1NC(=O)[C@@H](c2cn3c4c(cccc24)CCC3)[C@@H]1c1c[nH]c2ccccc12 [ARQ197]
Experimental: as §2

Cisplatin = compound: N.N.[Cl][Pt][Cl] [Cisplatin]
Experimental: as §2

| Test System | IC50 (SRB growth assay) (17-AAG) [nM] | IC50 (SRB growth assay) (Sirolimus) [pM] | IC50 (SRB growth assay) (Bortezomib) [nM] | IC50 (SRB growth assay) (Sorafenib) [µM] | IC50 (SRB growth assay) (Panobinostat) [nM] | IC50 (SRB growth assay) (Vandetanib) [µM] | IC50 (SRB growth assay) (Decitabine) [µM] | IC50 (SRB growth assay) (MI-219) [µM] | IC50 (SRB growth assay) (Paclitaxel) [nM] | IC50 (SRB growth assay) (Brivanib) [µM] | IC50 (SRB growth assay) (Vorinostat) [µM] | IC50 (SRB growth assay) (Tipifarnib) [nM] | IC50 (SRB growth assay) (Serdemetan) [µM] | IC50 (SRB growth assay) (Methotrexate) [nM] | IC50 (SRB growth assay) (Sunitinib) [µM] | IC50 (SRB growth assay) (Nutlin-3) [µM] | IC50 (SRB growth assay) (Erlotinib) [µM] | IC50 (SRB growth assay) (Tamoxifen) [µM] | IC50 (SRB growth assay) (5-Fluorouracil) [µM] | IC50 (SRB growth assay) (Quisinostat) [nM] | IC50 (SRB growth assay) (Azacitidine) [µM] | IC50 (SRB growth assay) (Mitoxantrone) [nM] | IC50 (SRB growth assay) (Doxorubicin) [nM] | IC50 (SRB growth assay) (Docetaxel) [pM] | IC50 (SRB growth assay) (Belinostat) [nM] | IC50 (SRB growth assay) (Gefitinib) [µM] | IC50 (SRB growth assay) (Lapatinib) [nM] | IC50 (SRB growth assay) (Dasatinib) [µM] | IC50 (SRB growth assay) (ARQ197) [nM] | IC50 (SRB growth assay) (Cisplatin) [µM] |
| --- | --- | --- | --- | --- | --- | --- | --- | --- | --- | --- | --- | --- | --- | --- | --- | --- | --- | --- | --- | --- | --- | --- | --- | --- | --- | --- | --- | --- | --- | --- |
| HCC 1569 | 90 | 355 | 5.08 | 4.35 | 14.4 | 2.07 | > 10 | > 10 | 66.2 | > 10 | 1.07 | 938 | 1.8 | > 10000 | 6.49 | > 10 | 3.24 | 5.68 | 8.21 | 7.46 | 2.62 | 31.4 | 42.1 | 7630 | 521 | 7.43 | 857 | 0.381 | 619 | > 10 |
| UACC 812 | 3.62 | 144 | 7.5 | 3.11 | 29.9 | 3.54 | > 10 | 0.822 | 5.67 | > 10 | 2.27 | 666 | 1.05 | > 10000 | 5.49 | 1.72 | 4.08 | > 10 | 6.24 | 17.2 | > 10 | 275 | 79.9 | 1650 | 901 | 4.83 | 132 | 1.6 | 528 | > 10 |
| HCC 1395 | 140 | 636 | 5.53 | 6.31 | 26.6 | 7.74 | > 10 | > 10 | 1.76 | > 10 | 2.39 | 469 | 1.52 | 1940 | 8.6 | > 10 | > 10 | 7.58 | 3.75 | 13 | 2.18 | 26.1 | 55.5 | 408 | 1070 | > 10 | 3750 | > 10 | 381 | > 10 |
| MDA-MB 415 | 71.8 | 688 | 10.8 | 5.2 | 23.6 | 4.78 | > 10 | > 10 | 5.81 | > 10 | 1.53 | 6780 | 6.07 | 326 | 5.1 | > 10 | > 10 | 9.97 | 6.53 | 24.1 | > 10 | 31.3 | 66 | 764 | 548 | > 10 | > 10000 | > 10 | 691 | > 10 |
| MDA-MB 453 | 3.08 | 190 | 6.37 | 4.93 | 5.73 | 5.11 | 4.17 | > 10 | 2.14 | > 10 | 0.368 | 2140 | 0.796 | > 10000 | 6.26 | > 10 | > 10 | 6.36 | > 10 | 2.01 | 7.19 | 8.79 | 31.9 | 872 | 52.7 | > 10 | 827 | 0.00393 | 192 | > 10 |
| HCC 1419 | 14 | 195 | 4.28 | 3.45 | 6.31 | 3.54 | > 10 | > 10 | 33.3 | > 10 | 0.542 | 550 | 2.45 | 164 | 9.93 | > 10 | 2.72 | 4.58 | > 10 | 3.8 | > 10 | 126 | 153 | 15200 | 174 | 2.68 | 28.4 | 6.03 | 1210 | > 10 |
| MDA-MB 436 | 34.9 | 3420 | 6.95 | 4.83 | 34.6 | 4.1 | 0.783 | > 10 | 2.3 | > 10 | 1.89 | 703 | 1 | 27.7 | 2.17 | > 10 | 1.97 | > 10 | 0.981 | 23.5 | 1.67 | 0.781 | 5.7 | 772 | 637 | 4.96 | 4660 | 1.29 | 359 | 1.4 |
